Source: patent publication US7329782B2, “Compounds for the treatment of metabolic disorders” (Wellstat Therapeutics Corporation, priority 2001, dated 2008)

How the values were obtained:
[1] = system: mice challenged with multiple high doses of STZ; experiment: Mortality in severe insulin-dependent diabetes, multiple high doses of STZ (Example C); type: in vivo, balb/C mice; settings: STZ 75 mg/kg i.p. x 5 days, oral 30 mg/kg/day, after three weeks of daily treatment, 20 mice/group
Experimental: Female balb/C mice (19 wks of age at start of experiment) were challenged with multiple high doses of STZ (75 mg/kg i.p. on 5 consecutive days). Animals were then divided in two groups (20 mice/group) matched for severity of diabetes. Four days after the last dose of STZ, treatments were initiated. One group received Vehicle (0.4 ml of 0.75% HPMC, p.o.), and the other group received oral COMPOUND AA (30 mg/kg/day). After three weeks of daily treatment, cumulative mortality in the Vehicle Control group was 19/20 mice. In contrast, only 5/20 of the COMPOUND AA mice died during this time.

[2] = system: streptozotocin diabetic mice; experiment: Streptozotocin diabetic mice treated with oral Compound AH for 14 weeks (Example A); type: in vivo, Balb/C mice; settings: STZ diabetic mice, 250 mg/kg daily oral, after several weeks of treatment
Experimental: Streptozotocin (STZ) is a toxin that selectively destroys insulin-producing pancreatic beta cells, and is widely used to induce insulin-dependent diabetes in experimental animals.
Female Balb/C mice (8 weeks old; 18-20 grams body weight) were treated with streptozotocin (STZ) (50 mg/kg i.p. on each of five consecutive days). Fourteen days after the last dose of STZ, blood glucose was measured to verify that the animals were diabetic, and the mice were divided into two groups of 5 animals each, one group receiving Compound AH (250 mg/kg) daily by oral gavage, and the other receiving vehicle (0.75% hydroxypropylmethylcellulose, a suspending agent, in water). […] Blood samples were taken periodically for determination of blood glucose concentrations, and body weights were also recorded.

[3] = system: mice with severe insulin-dependent diabetes induced by streptozotocin; experiment: Survival of mice with lethal insulin-dependent diabetes, single dose of streptozotocin (Example B); type: in vivo, Balb/C mice
Experimental: Female Balb/C mice (14 weeks old) were treated with a single dose of streptozotocin (175 mg/kg i.p.) to induce severe insulin-dependent diabetes. Seven days later, mice were divided into three treatment groups: Compound AH, pioglitazone, and vehicle. Mice were treated daily via oral gavage, and survival was monitored over time.

ob/ob mice [4] = system: ob/ob mice
Source text: Male lean (ob/+ heterozygote) and obese (ob/ob homozygote) C57BL/6 mice approximately 8 weeks of age were obtained from Jackson Labs (Bar Harbor, Me.) and randomly assigned into groups of 5 animals such that body weights and blood glucose concentrations were similar between groups. […] Blood glucose was routinely determined with glucose test strips and a Glucometer Elite XL device (Bayer Corporation). At selected time points, blood samples (˜100 microliters) were obtained with a heparinized capillary tube via the retro-orbital sinus for serum chemistry analysis.
The dose ranges of compounds in this experiment were chosen to include both suboptimal and potentially supraoptimal doses.

ob/ob mice [5] = experiment: Acute hypoglycemic effect in ob/ob obese diabetic mice, Expt 2 (Example G); type: in vivo; settings: Mus musculus, single oral dose 250 mg/kg, 6 hours, read-out: % Reduction vs Control
Experimental: Male ob/ob mice (50-55 grams; blood glucose ˜300 mg/dL) were divided into groups of five animals each, and given a single oral dose of test drug (250 mg/kg) suspended in 0.5% carboxymethylcellulose vehicle; a control group received oral vehicle alone. Six hours after oral administration of test drugs or vehicle (control), blood samples were obtained from a tail vein and glucose content was determined with a glucometer.

[6] = system: high fat-fed C57B1/6J mice; experiment: Circulating triglycerides, free fatty acids, insulin and leptin in high fat-fed C57B1/6J mice (Example L); type: in vivo; settings: oral gavage, after 4 weeks of drug treatment
Source text: The high fat-fed mouse is a model for the hypertriglyceridemia and high circulating fatty acid levels, and the insulin and leptin resistance that are found in people at risk for and with obesity, diabetes, cardiovascular disease and other disorders. Male C57B1/6J mice, approximately 8 weeks of age, were randomly assigned into groups of 6 animals. […] Mice were fed a high-fat diet (diet number D12451, containing 45% of calories as fat (Research Diets, New Brunswick, N.J.)) for 6 weeks. […]

[7] = system: high fat-fed Sprague Dawley rats; experiment: Circulating glucose, insulin, triglycerides and free fatty acids in high fat-fed Sprague Dawley rats (Example M); type: in vivo; settings: at all doses (10, 30 and 100 mg/kg)
Experimental: All animals were maintained in a temperature-controlled (25° C.) facility with a strict 12 h light/dark cycle and were given free access to water and food. Rats were fed a high-fat diet (diet number D12451 (containing 45% of calories as fat), Research Diets, New Brunswick, N.J.) for one month prior to drug treatment.
At the indicated time points, blood samples (˜100 μl) were obtained via the tail vein for serum chemistry analysis.

## O=C(O)CCC(=O)c1ccc(OCc2ccccc2F)cc1 [Compound AA, 4-(4-(2-Fluorobenzyloxy)phenyl)-4-oxobutyric acid]
[1]
  cumulative mortality (mice died): 5/20

## O=C(O)CCC(=O)c1ccc(OCc2c(F)cccc2F)cc1 [Compound AH, 4-(4-(2,6-Difluorobenzyloxy)phenyl)-4-oxobutyric acid]
[2]
  blood glucose concentrations: began to decrease toward baseline
[3]; STZ 175 mg/kg i.p. mice, daily oral gavage 250 mg/kg/day
  Survivors (Survival at 12 weeks): Four of the five
[3]; at 12 weeks, 250 mg/kg/day oral
  body weights of survivors: recovered and were maintained in the normal range

## O=C(O)CCC(=O)c1cccc(OCc2c(F)cccc2F)c1 [Compound AW, 4-(3-(2,6-Difluorobenzyloxy)phenyl)-4-oxobutyric acid]
ob/ob mice [4]; 100 to 300 mg/kg/day, versus comparators at their optimum antihyperglycemic doses
  serum triglycerides and fatty acids: reduced serum triglycerides and fatty acids better than did either rosiglitazone or pioglitazone
ob/ob mice [4]; daily oral, over the dose range
  reduction in blood glucose: comparable to that achieved with pioglitazone and rosiglitazone
ob/ob mice [4]; doses ranging from 30 mg/kg/day to 300 mg/kg/day
  serum liver enzymes (ALT, AST, SDH): dose-dependent decrease
ob/ob mice [4]; four week treatment period, over the dose range
  weight gain relative to vehicle-treated mice: dose-dependent attenuation of weight gain
ob/ob mice [5]
  change in vivo at 250 mg/kg: -53.1 ± 3.1%

## Cc1cccc(C)c1COc1cccc(C(=O)CCC(=O)O)c1 [Compound BI, 4-(3-(2,6-Dimethylbenzyloxy)phenyl)-4-oxobutyric acid]
[6]
  insulin serum levels (FIG. 1): effective at lowering
  leptin serum levels (FIG. 2): effective at lowering
[7]
  free fatty acids: reduced

## Cc1cccc(C)c1COc1cccc(C(=O)CCC(=O)[O-])c1.[Na+] [Compound BL, 4-(3-(2,6-Dimethylbenzyloxy)phenyl)-4-oxobutyric acid Sodium salt]
[6]
  insulin serum levels (FIG. 1): effective at lowering
  leptin serum levels (FIG. 2): effective at lowering
